Test results reported in PMC6108126, “Purification, characterization and immunogenicity assessment of glutaminase free L-asparaginase from Streptomyces brollosae NEAE-115” (BMC Pharmacology & Toxicology, 2018).

Columns and labels:
[1] = test system: T1, L-asparaginase from Streptomyces brollosae NEAE-115; details: 0.05 M Tris-HCl, pH 8.6, 37 °C (standard assay); 1-10 mM substrate
T1 construct: gene L-asparagine amidohydrolase

purified protein = substrate: NC(=O)C[C@H](N)C(=O)O; test: purified protein; details: 0.05 M Tris-HCl, pH 8.6, 37 °C (standard assay), 1-10 mM substrate

Km [1] [µM] | Molecule | Km (purified protein) [µM]
2140 | NC(=O)C[C@H](N)C(=O)O [L-asparagine] | –
– | commercially available L-asparaginase from E. coli (Escherichia coli K-12) (protein) LPNITILATGGTIAGGGDSATKSNYTVGKVGVENLVNAVPQLKDIANVKGEQVVNIGSQDMNDNVWLTLAKKINTDCDKTDGFVITHGTDTMEETAYFLDLTVKCDKPVVMVGAMRPSTSMSADGPFNLYNAVVTAADKASANRGVLVVMNDTVLDGRDVTKTNTTDVATFKSVNYGPLGYIHNGKIDYQRTPARKHTSDTPFDVSKLNELPKVGIVYNYANASDLPAKALVDAGYDGIVSAGVGNGNLYKSVFDTLATAAKTGTAVVRSSRVPTGATTQDAEVDDAKYGFVASGTLNPQKARVLLQLALTQTKDPQQIQQIFNQY | 176
